# Measured values as given in US20230137306A1 (priority 2020, published 2023).
# Where a name gives a salt, the structure may show the parent alone. Read-outs that look alike come from different tables or passages of the source.
# What was measured:
# SARS-CoV-2 [1] = details: human, in vivo; cited from earlier work
# [2] = system: membrane fusion induced by the S protein of SARS-CoV-2; type: cell-based, human
# [3] = system: membrane fusion induced by the S protein of SARS-CoV; type: cell-based, human; details: 293FT target cells, nafamostat 0.1 μM to 10 μM, gabexsate 1 μM to 10 μM, FIG. 6
# [4] = system: RNA viruses such as norovirus, bunyavirus, arenavirus, flavivirus and Filovirus; details: cited from earlier work
# COVID-19 = details: randomized controlled trials; cited from earlier work
# SARS-CoV = details: cited from earlier work
# [5] = system: membrane fusion induced by the S protein of SARS-CoV-2 (Calu-3 cells); type: cell-based, human
# [6] = system: membrane fusion induced by the S protein of SARS-CoV-2 (H3255 cells); type: cell-based, human
# SARS-CoV-2 [7] = details: read-out: 50% infection inhibitory concentration (IC50); Vero E6 cells, TMPRSS2 not expressed; Wang et al.; cited from earlier work
# [8] = healthy adult males, cited from earlier work
# [9] = system: membrane fusion caused by the S protein of MERS-CoV; details: cited from earlier work
# [10] = Pharmacokinetics, intravenous drip in healthy adult males; details: 20 mg intravenous drip over 90 minutes; corresponds to 61.5 ng/mL
compound,measurement,setting,value
CCN(CCO)CCCC(C)Nc1ccnc2cc(Cl)ccc12 (stereo not drawn) [Hydroxychloroquine],removal of SARS-CoV-2 from the nasopharynx,SARS-CoV-2 [1],removed at high frequency
"CN(C)C(=O)COC(=O)Cc1ccc(OC(=O)c2ccc(NC(=N)N)cc2)cc1 [camostat mesylate, dimethylcarbamoylmethyl 4-(4-guanidinobenzoyloxy)phenylacetate monomethanesulfonate]","inhibitory effect on membrane fusion (relative cell fusion, RL activity)",[2],membrane fusion was inhibited
same,inhibitory effect relative to that of nafamostat mesylate,[2],about 1/10
same,"inhibitory effect on membrane fusion (relative cell fusion, RL activity)",[3],second highest inhibitory effect
NC(=O)c1nc(F)c[nH]c1=O [favipiravir],antiviral activity against RNA viruses,[4],exhibits antiviral activity
Cc1cccc(C)c1OCC(=O)N[C@@H](Cc1ccccc1)[C@@H](O)C[C@H](Cc1ccccc1)NC(=O)[C@H](C(C)C)N1CCCNC1=O [lopinavir],improvement of the symptoms of COVID-19,COVID-19,could not improve the symptoms
same,inhibitory activity against SARS-CoV,SARS-CoV,exhibited inhibitory activity
"N=C(N)c1ccc2cc(OC(=O)c3ccc(N=C(N)N)cc3)ccc2c1 [nafamostat mesylate, 6-amidinonaphthalen-2-yl 4-guanidinobenzoate bis(methanesulfonate)]",concentration lower than that used for the 293FT cells,[5],about 10 fold
same,"inhibitory activity against membrane fusion, stronger than that of camostat mesylate",[5],about 10 fold
same,suppression of membrane fusion,[5],almost completely suppressed
same,suppression of membrane fusion,[6],almost completely suppressed
same,IC50,SARS-CoV-2 [7],22.5 µM
same,maximum blood concentration of unchanged agent,[8]; 10 mg intravenous drip over 90 minutes,16.4 ng/mL
same,maximum blood concentration of unchanged agent,[8]; 20 mg intravenous drip over 90 minutes,61.5 ng/mL
same,inhibition of membrane fusion caused by the S protein of MERS-CoV,[9],effectively inhibits
same,maximum blood concentration converted to,[10],114 nM
CC(C)c1nc(CN(C)C(=O)N[C@H](C(=O)N[C@@H](Cc2ccccc2)C[C@H](O)[C@H](Cc2ccccc2)NC(=O)OCc2cncs2)C(C)C)cs1 [ritonavir],improvement of the symptoms of COVID-19,COVID-19,could not improve the symptoms
same,inhibitory activity against SARS-CoV,SARS-CoV,exhibited inhibitory activity
